Experimental data as given in article PMC6930573, “Discovery of Selective Butyrylcholinesterase (BChE) Inhibitors through a Combination of Computational Studies and Biological Evaluations” (Molecules, 2019).
Several values for one entry are separate records, joined by “and”; a condition that tells them apart may be missing. Identical values can stand only once.

Assays:
[1] = system: hAChE; parameters: method as in earlier work; settings: Figure 1; ref 22 (1), 23 (2); cited from earlier work
[2] = system: hBChE; settings: read-out: IC50 (hBChE); Figure 1; ref 22 (1), 23 (2), 24 (3), 25 (4); cited from earlier work
[3] = molecular target: T1, AChE (from human erythrocytes) (Homo sapiens, UniProt P22303); assay: biochemical; assay type: biochemical; settings: mean ± SEM of three experiments; for AChE IR (inhibition ratio): at 10 μM
T1 construct: AChE (from human erythrocytes, C0663); purchased Sigma-Aldrich C0663; host or cells: human erythrocytes
T1 sequence (P22303 other isoform, or with tags, fused parts or gaps): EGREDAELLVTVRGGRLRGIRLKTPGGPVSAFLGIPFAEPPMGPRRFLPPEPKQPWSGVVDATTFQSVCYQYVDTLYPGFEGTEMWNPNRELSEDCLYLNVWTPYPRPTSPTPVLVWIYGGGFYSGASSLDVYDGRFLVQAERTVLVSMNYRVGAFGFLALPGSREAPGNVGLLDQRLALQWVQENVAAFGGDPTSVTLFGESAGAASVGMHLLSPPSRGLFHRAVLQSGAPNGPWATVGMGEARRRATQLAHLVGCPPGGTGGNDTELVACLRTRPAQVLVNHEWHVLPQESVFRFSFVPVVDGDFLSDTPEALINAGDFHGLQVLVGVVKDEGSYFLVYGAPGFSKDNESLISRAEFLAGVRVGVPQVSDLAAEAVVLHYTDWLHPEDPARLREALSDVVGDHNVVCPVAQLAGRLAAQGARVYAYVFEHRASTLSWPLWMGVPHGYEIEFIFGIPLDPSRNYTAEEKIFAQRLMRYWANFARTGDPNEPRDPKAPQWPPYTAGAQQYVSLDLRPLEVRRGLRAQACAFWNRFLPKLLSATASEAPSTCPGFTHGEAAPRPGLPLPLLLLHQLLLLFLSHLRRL
Protocol: (§1) Modified Ellman’s assay was performed to measure the inhibitory effects of purchased compounds on ChEs using a Thermo Fisher Scientific spectrophotometer. AChE (from human erythrocytes, C0663), BChE (from human serum, B4186), 5,5-dithiobis-(2-nitrobenzoic acid) (DTNB, D218200), acetylthiocholine iodide (ATC, A5751), and butyrylthiocholine iodide (BTC, B3253) were purchased from Sigma-Aldrich (St. Louis, MO, USA).
(§2) For measurement, a cuvette containing 30 μL of phosphate buffer, 10 μL of AChE (2.5 units/mL) or BChE (2.5 units/mL), and 10 μL of the test compound solution was allowed to stand for 5 min before 10 μL of DTNB was added. After the addition of 20 μL of ATC or BTC, the reaction was initiated and the solution was mixed immediately. […] 10 μL of phosphate-buffered solution replaced the enzyme solution were used to determine the blank value. All the measurements were done in triplicate. The inhibition curve was drawn by plotting the percentage enzyme activity (100% for the reference) versus the logarithm of the test compound concentration. The IC50 values were calculated by GraphPad Prism 6 (GraphPad Software, San Diego, CA, USA), and the data were shown as mean ± standard error of mean (SEM).

[4] = molecular target: T2, BChE (from human serum) (Homo sapiens, UniProt P06276); assay: biochemical; assay type: biochemical; settings: for BChE IR (inhibition ratio): at 10 μM; for BChE IR (inhibition ratio) / IC50: mean ± SEM of three experiments
T2 construct: BChE (from human serum, B4186); purchased Sigma-Aldrich B4186; host or cells: human serum
T2 sequence (P06276 29-602): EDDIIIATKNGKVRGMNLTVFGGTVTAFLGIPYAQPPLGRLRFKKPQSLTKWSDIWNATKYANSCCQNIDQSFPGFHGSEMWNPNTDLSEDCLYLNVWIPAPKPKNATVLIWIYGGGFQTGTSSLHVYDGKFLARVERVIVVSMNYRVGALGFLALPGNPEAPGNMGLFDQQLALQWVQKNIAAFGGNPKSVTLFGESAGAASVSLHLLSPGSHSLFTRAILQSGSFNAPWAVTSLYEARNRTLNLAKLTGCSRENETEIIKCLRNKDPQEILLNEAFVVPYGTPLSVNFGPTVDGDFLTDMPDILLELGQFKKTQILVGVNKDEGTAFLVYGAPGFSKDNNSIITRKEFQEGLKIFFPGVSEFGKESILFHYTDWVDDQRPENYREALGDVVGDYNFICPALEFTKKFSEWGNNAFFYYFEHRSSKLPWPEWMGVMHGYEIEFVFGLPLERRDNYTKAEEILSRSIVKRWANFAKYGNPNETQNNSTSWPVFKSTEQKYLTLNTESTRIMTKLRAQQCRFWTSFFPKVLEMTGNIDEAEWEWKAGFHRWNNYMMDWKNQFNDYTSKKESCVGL
Protocol: as §1, §2

[5] = molecular target: T3, BChE (Homo sapiens, UniProt P06276); assay: Enzyme kinetic study with BChE (substrate BTC); assay type: biochemical; settings: for Apparent Vmax: mean ± SD; for Kiu (inhibition constant for the uncompetitive part of inhibition) / Ki: mean ± SEM of three experiments; for Ki: read-out: Kic (inhibition constant for the competitive part of inhibition); for Mode of inhibition: substrate 90–904 μM, inhibitor 0.5–2 μM
T3 construct: BChE (from human serum, B4186); purchased Sigma-Aldrich B4186; host or cells: human serum
T3 sequence (P06276 29-602): as above
Protocol: Kinetic studies were performed in the same manner as the determination of ChE inhibition as previously described. The substrate (BTC) was used at various concentrations (90, 150, 226, 452, and 904 μM) for each test compound concentration and the enzymatic reaction was extended to four minutes before determining the absorption. The Vmax and Km values of the Michaelis–Menten kinetics were calculated by nonlinear regression from substrate–velocity curves using Graphpad Prism 6 (GraphPad Software, San Diego, CA, USA) (Table S1). […]

[6] = system: SH-SY5Y cells; assay: MTT cell viability assay; assay type: cell-based; settings: 10 μM and 50 μM, 24 h
Protocol: The human neuroblastoma SH-SY5Y cells (3 × 10^3, DMEM medium supplemented with 10% fetal bovine serum, volume 0.1 mL) were placed in a 96-well flat-bottomed plate, in a humidified atmosphere of 95% air and 5% CO2 at 37 °C and grown to 80% confluence. Before cell treatment, the complete medium was replaced with reduced-serum medium (BI, 01-052-1ACS). Then, cells were treated with various concentrations of compounds for 24 h. MTT reagent (D&B, Q108115) (0.5 mg/mL) was added to the wells and the plates were incubated for 4 h at 37 °C. Supernatants were carefully removed, and 150 μL of dimethylsulfoxide (DMSO) were added into each well. The absorbance was measured at 570 nm using the spectrophotometer (Thermo, multiskan FC, USA). Cells were treated in quadruplicate. The values are the mean ± SD of three independent experiments.

Compound: COCCN(CC1CCCN(Cc2ccccc2)C1)S(=O)(=O)c1ccc2ccccc2c1 (centres unmarked) [Compound 1, N-((1-benzylpiperidin-3-yl)methyl)-N-(2-methoxyethyl)naphthalene-2-sulfonamide]
- IC50 [1]: > 10000 nM

Compound: CN(C)CCN(CC1CCCN(C2Cc3ccccc3C2)C1)C(=O)c1ccc2ccccc2c1 (centres unmarked) [Compound 2]
- IC50 [1]: > 10000 nM

Compound: O=C1NCCCc2c1c1ccccc1n2CCc1cccc(F)c1 [Compound 3]
- IC50 [2]: 1.8 nM

Compound: CCCCCCCNC(=O)Oc1ccc2c(c1)CN(C)C(c1cccs1)N2C (centres unmarked) [Compound 4]
- IC50 [2]: 13 nM

Compound: Cc1ccc(S(=O)(=O)Nc2nc3ccccc3nc2NCc2ccc(F)cc2)cc1C [Compound 5]
- AChE IR (inhibition ratio) [3]: −0.31 ± 0.5%
- BChE IR (inhibition ratio) [4]: 7.2 ± 0.6%

Compound: Cc1nc(-c2cccc(F)c2)n(CCC(=O)NCCCc2ccccc2)c(=O)c1CCO [Compound 6]
- AChE IR (inhibition ratio) [3]: −1.5 ± 0.5%
- BChE IR (inhibition ratio) [4]: 8.5 ± 0.3%

Compound: Cc1noc(C)c1CN(C)Cc1ccn(S(=O)(=O)c2ccccc2)c1 [Compound 7]
- AChE IR (inhibition ratio) [3]: 0.6 ± 0.6%
- BChE IR (inhibition ratio) [4]: 16.3 ± 1.1%

Compound: COc1ccccc1CN1CCCC(CN(CCN(C)C)C(=O)C(=O)c2ccccc2)C1 (centres unmarked) [Compound 8]
- BChE selective index (SI BChE, AChE IC50/BChE IC50) [4]: > 30
- IC50 [4]: 1100 ± 600 nM
- Apparent Vmax ([5]; inhibitor 0.5 µM): 0.34 ± 0.01 µM/min
- Apparent Vmax ([5]; inhibitor 1 µM): 0.27 ± 0.01 µM/min
- Apparent Vmax ([5]; inhibitor 1.5 µM): 0.25 ± 0.01 µM/min
- Apparent Vmax ([5]; inhibitor 2 µM): 0.24 ± 0.01 µM/min
- Kiu (inhibition constant for the uncompetitive part of inhibition) [5]: 3.61 ± 0.24 µM
- Ki [5]: 880 ± 70 nM
- Mode of inhibition [5]: mixed-type inhibitors
- Effect on cell viability (cytotoxicity) [6]: none of compounds was observed to affect cell viability

Compound: COCCN1C(=O)N(CCc2ccccc2)C(=O)C12CCN(Cc1ccccc1)CC2 [Compound 9]
- AChE IR (inhibition ratio) [3]: 16.0 ± 1.5%
- BChE IR (inhibition ratio) [4]: 15.5 ± 1.6%

Compound: O=C(CC1NC(N2CCN(Cc3ccccc3)CC2)=NC1=O)Nc1ccccc1 (centres unmarked) [Compound 10]
- AChE IR (inhibition ratio) [3]: 7.8 ± 0.7%
- BChE IR (inhibition ratio) [4]: 9.9 ± 1.0%

Compound: O=C(NC1(C(F)(F)F)N=C(c2ccccc2)N(Cc2ccccc2)C1=O)c1ccco1 (centres unmarked) [Compound 11]
- AChE IR (inhibition ratio) [3]: −0.7 ± 0.7%
- BChE IR (inhibition ratio) [4]: 14.8 ± 1.3%

Compound: CC1=NC2C(SC(=S)N2Cc2ccco2)C(=O)N1CC(=O)NCCc1ccccc1 (centres unmarked) [Compound 12]
- AChE IR (inhibition ratio) [3]: 1.1 ± 1.0%
- BChE IR (inhibition ratio) [4]: −1.8 ± 1.1%

Compound: COc1cccc(N(CC(=O)N2CCN(Cc3ccccc3)CC2)S(=O)(=O)c2ccccc2)c1 [Compound 13]
- AChE IR (inhibition ratio) [3]: 11.3 ± 1.3%
- BChE IR (inhibition ratio) [4]: 20.1 ± 1.2%

Compound: CCN(Cc1ccccc1)C(=O)CCc1nc2ccsc2c(=O)n1Cc1ccccc1 [Compound 14]
- AChE IR (inhibition ratio) [3]: 10.9 ± 0.8%
- BChE IR (inhibition ratio) [4]: 3.4 ± 0.4%

Compound: O=C(O)C(c1c[nH]c2ccccc12)N1CCN(c2ccccn2)CC1 (centres unmarked) [Compound 15]
- AChE IR (inhibition ratio) [3]: 0.6 ± 1.0%
- BChE IR (inhibition ratio) [4]: −0.6 ± 0.5%

Compound: COc1cccc(S(=O)(=O)NCC2CCCN(Cc3cc4ccccc4o3)C2)c1 (centres unmarked) [Compound 16]
- AChE IR (inhibition ratio) [3]: 38.7 ± 1.7%
- BChE IR (inhibition ratio) [4]: 26.4 ± 1.1%

Compound: Cc1cc(C)cc(N(CC(=O)N2CCN(Cc3ccccc3)CC2)S(=O)(=O)c2ccccc2)c1 [Compound 17]
- AChE IR (inhibition ratio) [3]: 2.9 ± 0.5%
- BChE IR (inhibition ratio) [4]: 11.8 ± 1.2%

Compound: COc1ccc(CCN2CCCC(O)(CNCc3cc(C)ccc3C)C2=O)cc1 (centres unmarked) [Compound 18]
- AChE IR (inhibition ratio) [3]: 11.1% and 11.1 ± 1.5%
- BChE selective index (SI BChE, AChE IC50/BChE IC50) [4]: > 30
- BChE IR (inhibition ratio) [4]: 58.4% and 58.4 ± 0.9%
- IC50 [4]: 6300 ± 2000 nM
- Apparent Vmax ([5]; inhibitor 0.5 µM): 0.49 ± 0.01 µM/min
- Apparent Vmax ([5]; inhibitor 1 µM): 0.42 ± 0.02 µM/min
- Apparent Vmax ([5]; inhibitor 1.5 µM): 0.39 ± 0.01 µM/min
- Apparent Vmax ([5]; inhibitor 2 µM): 0.28 ± 0.02 µM/min
- Kiu (inhibition constant for the uncompetitive part of inhibition) [5]: 2.31 ± 0.32 µM
- Ki [5]: 930 ± 130 nM
- Mode of inhibition [5]: mixed-type inhibitors
- Effect on cell viability (cytotoxicity) [6]: none of compounds was observed to affect cell viability

Compound: COC(=O)c1c(S(=O)(=O)Nc2ccc(C)cc2)sc2c1CCN(Cc1ccccc1O)C2 [Compound 19]
- IC50 [3]: 13800 ± 6000 nM
- BChE selective index (SI BChE, AChE IC50/BChE IC50) [4]: 6
- IC50 [4]: 2400 ± 1000 nM
